pIC50: −log10 of the molar value.

This is an account of results in patent US20210253575A1, “PYRROLIDINE AMINE COMPOUNDS FOR THE TREATMENT OF AUTOIMMUNE DISEASE” (Hoffmann-La Roche Inc., priority 2018, published 2021).

This assay has as its target T1, human TLR9 (Homo sapiens, UniProt Q9NR96).
T1 sequence (Q9NR96 26-1032): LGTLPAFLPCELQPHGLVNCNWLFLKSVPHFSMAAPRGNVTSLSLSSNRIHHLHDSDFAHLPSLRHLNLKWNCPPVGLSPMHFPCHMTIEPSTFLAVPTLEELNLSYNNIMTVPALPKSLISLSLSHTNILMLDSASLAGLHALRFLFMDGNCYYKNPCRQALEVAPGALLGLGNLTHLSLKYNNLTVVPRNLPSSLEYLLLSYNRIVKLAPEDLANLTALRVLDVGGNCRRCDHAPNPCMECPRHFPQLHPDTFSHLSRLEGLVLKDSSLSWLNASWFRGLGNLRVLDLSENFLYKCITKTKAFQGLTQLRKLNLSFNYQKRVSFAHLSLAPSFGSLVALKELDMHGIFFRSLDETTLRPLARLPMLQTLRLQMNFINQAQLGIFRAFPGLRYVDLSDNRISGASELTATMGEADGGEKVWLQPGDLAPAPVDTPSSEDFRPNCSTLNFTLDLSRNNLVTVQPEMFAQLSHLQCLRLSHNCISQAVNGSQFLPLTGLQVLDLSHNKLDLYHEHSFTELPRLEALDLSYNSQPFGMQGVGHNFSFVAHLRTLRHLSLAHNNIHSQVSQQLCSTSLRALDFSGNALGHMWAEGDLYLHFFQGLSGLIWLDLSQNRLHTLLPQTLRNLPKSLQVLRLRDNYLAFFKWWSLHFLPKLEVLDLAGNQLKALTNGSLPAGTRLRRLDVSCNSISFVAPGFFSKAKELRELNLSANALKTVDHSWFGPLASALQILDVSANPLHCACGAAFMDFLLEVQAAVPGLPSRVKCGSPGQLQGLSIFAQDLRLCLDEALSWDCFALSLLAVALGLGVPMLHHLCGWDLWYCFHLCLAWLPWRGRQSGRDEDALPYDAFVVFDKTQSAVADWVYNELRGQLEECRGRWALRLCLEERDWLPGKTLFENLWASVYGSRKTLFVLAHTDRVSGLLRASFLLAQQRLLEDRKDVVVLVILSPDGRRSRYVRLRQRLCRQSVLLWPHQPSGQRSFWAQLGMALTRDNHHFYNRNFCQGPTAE
In words: HEK293-Blue-hTLR-9 cells assay (SEAP reporter, ODN2006 stimulation). Type of assay: cell-based. Conditions: HEK293-Blue-hTLR9 cells, ODN2006 ligand, 20 hrs incubation. The procedure:
The following tests were carried out in order to determine the activity of the compounds of formula (I) in HEK293-Blue-hTLR-7/8/9 cells assay.
HEK293-Blue-hTLR-9 Cells Assay:
A stable HEK293-Blue-hTLR-9 cell line was purchased from InvivoGen (Cat. #: hkb-htlr9, San Diego, Calif., USA). These cells were originally designed for studying the stimulation of human TLR9 by monitoring the activation of NF-κB. A SEAP (secreted embryonic alkaline phosphatase) reporter gene was placed under the control of the IFN-β minimal promoter fused to five NF-κB and AP-1-binding sites. The SEAP was induced by activating NF-κB and AP-1 via stimulating HEK-Blue hTLR9 cells with TLR9 ligands. Therefore the reporter expression was declined by TLR9 antagonist under the stimulation of a ligand, such as ODN2006 (Cat. #: tlrl-2006-1, Invivogen, San Diego, Calif., USA), for incubation of 20 hrs. The cell culture supernatant SEAP reporter activity was determined using QUANTI-Blue™ kit (Cat. #: rep-qb1, Invivogen, San Diego, Calif., USA) at a wavelength of 640 nm, a detection medium that turns purple or blue in the presence of alkaline phosphatase.
HEK293-Blue-hTLR9 cells were incubated at a density of 250,000˜450,000 cells/mL in a volume of 170 μL in a 96-well plate in Dulbecco's Modified Eagle's medium (DMEM) containing 4.5 g/L glucose, 50 U/mL penicillin, […], […], 2 mM L-glutamine, 10% (v/v) heat-inactivated fetal bovine serum with addition of 20 μL test compound in a serial dilution in the presence of final DMSO at 1% and 10 μL of 20 uM ODN2006 in above DMEM, perform incubation under 37° C. in a CO2incubator for 20 hrs. Then 20 μL of the superatant from each well was incubated with 180 μL Quanti-blue substrate solution at 37° C. for 2 hrs and the absorbance was read at 620˜655 nm using a spectrophotometer. The signalling pathway that TLR9 activation leads to downstream NF-κB activation has been widely accepted, and therefore similar reporter assay was modified for evaluating TLR9 antagonist.
Usually pIC50 stands for the IC50 on a negative log10 scale, so that one unit is a factor of ten. Read a low pIC50 as a high IC50. `N#Cc1ccc(N2C[C@H](CN3CCC4(CCNC4)CC3)[C@@H](C(F)(F)F)C2)c2nccnc12` [Example 14, 8-[(3S,4R)-3-(2,8-Diazaspiro[4.5]decan-8-ylmethyl)-4-(trifluoromethyl)pyrrolidin-1-yl]quinoxaline-5-carbonitrile]: the pIC50 was 6.82.

As for `N#Cc1ccc(N2CC(CN3CCC4(CCNCC4)CC3)C3(CC3)C2)c2nccnc12` (stereo not drawn) [Example 16, 8-[7-(3,9-Diazaspiro[5.5]undecan-3-ylmethyl)-5-azaspiro[2.4]heptan-5-yl]quinoxaline-5-carbonitrile], the pIC50 was 7.30.

With `C[C@H]1CN(c2ccc(C#N)c3nccnc23)C[C@@H]1CN1CCC2(CCNCC2)CC1` [Example 17, 8-[(3S,4R)-3-(3,9-diazaspiro[5.5]undecan-3-ylmethyl)-4-methyl-pyrrolidin-1-yl]quinoxaline-5-carbonitrile], the pIC50 is 6.87.

Consider `N#Cc1ccc(N2CC(CN3C[C@H]4CNC[C@H]4C3)C3(CC3)C2)c2nccnc12` (stereo partly drawn) [Example 18, 8-[7-[[(3aR,6aS)-2,3,3a,4,6,6a-hexahydro-H-pyrrolo[3,4-c]pyrrol-5-yl]methyl]-5-azaspiro[2.4]heptan-5-yl]quinoxaline-5-carbonitrile], for which the pIC50 is 7.01.

With `FC(F)(F)c1ccc(N2CC(CN3CCNCC3)C3(CC3)C2)c2nccnc12` (stereo not drawn) [Example 20, 5-[7-(Piperazin-1-ylmethyl)-5-azaspiro[2.4]heptan-5-yl]-8-(trifluoromethyl)quinoxaline], the pIC50 is 5.25.

Molecule `N#Cc1ccc(N2CC(CN3CCC4(CCCNC4)C3)C3(CC3)C2)c2nccnc12` (stereo not drawn) [Example 22, 8-[7-(2,9-Diazaspiro[4.5]decan-2-ylmethyl)-5-azaspiro[2.4]heptan-5-yl]quinoxaline-5-carbonitrile] showed a pIC50 of 6.82. This pIC50 lies 1.57 log units higher than the previous one.

Molecule `C[C@H]1CN(c2ccc(C#N)c3ncccc23)C[C@@H]1CN1CCC2(CCNCC2)CC1` [Example 23, 5-[(3S,4R)-3-(3,9-diazaspiro[5.5]undecan-3-ylmethyl)-4-methyl-pyrrolidin-1-yl]quinoline-8-carbonitrile] gave a pIC50 of 7.35.

Turning to `N#Cc1ccc(N2CC(CN3CC4(CCCNC4)C3)C3(CC3)C2)c2nccnc12` (stereo not drawn) [Example 24, 8-[7-(2,8-Diazaspiro[3.5]nonan-2-ylmethyl)-5-azaspiro[2.4]heptan-5-yl]quinoxaline-5-carbonitrile], the pIC50 was 7.09.

With `N#Cc1ccc(N2CC(CN3C4CCC3CC(N)C4)C3(CC3)C2)c2nccnc12` (stereo not drawn) [Example 25, 8-[7-[(3-Amino-8-azabicyclo[3.2.1]octan-8-yl)methyl]-5-azaspiro[2.4]heptan-5-yl]quinoxaline-5-carbonitrile], the pIC50 is 7.12.

In the case of `N#Cc1ccc(N2C[C@H](CN3CCC(N)CC3)[C@@H](C(F)(F)F)C2)c2nccnc12` [Example 26, 8-[(3S,4R)-3-[(4-Amino-1-piperidyl)methyl]-4-(trifluoromethyl)pyrrolidin-1-yl]quinoxaline-5-carbonitrile], the pIC50 was 6.59. Compared with the last molecule, the pIC50 is 0.53 log units lower.

For the molecule `C[C@H]1CN(c2ccc(C#N)c3nccnc23)C[C@@H]1CN1CCC2(CCNC2)C1` (stereo partly drawn) [Example 30, 8-[(3S,4R)-3-(2,7-diazaspiro[4.4]nonan-2-ylmethyl)-4-methyl-pyrrolidin-1-yl]quinoxaline-5-carbonitrile], the pIC50 was 6.51.

Molecule `FC(F)(F)c1ccc(N2CC(CN3CCC4(CCNCC4)CC3)C3(CC3)C2)c2nccnc12` (stereo not drawn) [Example 31, 3-[[5-[8-(Trifluoromethyl)quinoxalin-5-yl]-5-azaspiro[2.4]heptan-7-yl]methyl]-3,9-diazaspiro[5.5]undecane] gave a pIC50 of 6.42.

`N#Cc1ccc(N2CC(CN3CCC4(CCNCC4)C3)C3(CC3)C2)c2nccnc12` (stereo not drawn) [Example 32, 8-[7-(2,8-Diazaspiro[4.5]decan-2-ylmethyl)-5-azaspiro[2.4]heptan-5-yl]quinoxaline-5-carbonitrile]: the pIC50 was 7.10.

The molecule `C[C@H]1CN(c2ccc(C#N)c3ncccc23)C[C@@H]1CN1CCC2(CCNC2)C1` (stereo partly drawn) [Example 35, 5-[(3S,4R)-3-(2,7-diazaspiro[4.4]nonan-2-ylmethyl)-4-methyl-pyrrolidin-1-yl]quinoline-8-carbonitrile] gave a pIC50 of 7.30.

Molecule `N#Cc1ccc(N2CCC(CN3CCC4(CCNCC4)CC3)C2)c2nccnc12` (stereo not drawn) [Example 37, 8-[3-(3,9-Diazaspiro[5.5]undecan-3-ylmethyl)pyrrolidin-1-yl]quinoxaline-5-carbonitrile] gave a pIC50 of 7.49.

`N#Cc1ccc(N2CC(CNC3CCCNCC3)C3(CC3)C2)c2nccnc12` (stereo not drawn) [Example 39, 8-[7-[(Azepan-4-ylamino)methyl]-5-azaspiro[2.4]heptan-5-yl]quinoxaline-5-carbonitrile] showed a pIC50 of 7.01.

`C[C@@H]1CN(c2ccc(C(F)(F)F)c3nccnc23)C[C@H]1CNC1CCCNCC1` (stereo partly drawn) [Example 40] showed a pIC50 of 6.16.

Consider `FC(F)(F)c1ccc(N2CC(CN3C[C@H]4CNC[C@H]4C3)C3(CC3)C2)c2nccnc12` (stereo partly drawn) [Example 41, 5-[7-[[(3aR,6aS)-2,3,3a,4,6,6a-hexahydro-H-pyrrolo[3,4-c]pyrrol-5-yl]methyl]-5-azaspiro[2.4]heptan-5-yl]-8-(trifluoromethyl)quinoxaline], for which the pIC50 was 5.92.

In turn, `N#Cc1ccc(N2CC(CN3CC4(CC(N)C4)C3)C3(CC3)C2)c2nccnc12` (stereo not drawn) [Example 42, 8-[7-[(6-Amino-2-azaspiro[3.3]heptan-2-yl)methyl]-5-azaspiro[2.4]heptan-5-yl]quinoxaline-5-carbonitrile] had a negative-log IC50 (pIC50) of 6.82.

`N#Cc1ccc(N2CC(CN3CCC4(CCNC4)C3)C3(CC3)C2)c2cccnc12` (stereo not drawn) [Example 43, 5-[7-(2,7-Diazaspiro[4.4]nonan-2-ylmethyl)-5-azaspiro[2.4]heptan-5-yl]quinoline-8-carbonitrile]: the pIC50 is 7.21.

As for `N#Cc1ccc(N2C[C@H](CN3CCC4(CCCNC4)CC3)[C@@H](C(F)(F)F)C2)c2nccnc12` [Example 45, 8-[(3S,4R)-3-(2,9-diazaspiro[5.5]undecan-9-ylmethyl)-4-(trifluoromethyl)pyrrolidin-1-yl]quinoxaline-5-carbonitrile], the pIC50 was 6.65.

For the molecule `N#Cc1ccc(N2C[C@H](CN3CCC4(CCNCC4)C3)[C@@H](C(F)(F)F)C2)c2nccnc12` [Example 46, 8-[(3S,4R)-3-(2,8-diazaspiro[4.5]decan-2-ylmethyl)-4-(trifluoromethyl)pyrrolidin-1-yl]quinoxaline-5-carbonitrile], the pIC50 was 6.56.

In turn, `N#Cc1ccc(N2C[C@H](CN3CC4(CC(N)C4)C3)[C@@H](C(F)(F)F)C2)c2nccnc12` [Example 47, 8-[(3S,4R)-3-[(6-amino-2-azaspiro[3.3]heptan-2-yl)methyl]-4-(trifluoromethyl)pyrrolidin-1-yl]quinoxaline-5-carbonitrile] gave a pIC50 of 6.75.

`N#Cc1ccc(N2C[C@H](CN3CC4(CCNCC4)C3)[C@@H](C(F)(F)F)C2)c2nccnc12` [Example 48, 8-[(3S,4R)-3-(2,7-diazaspiro[3.5]nonan-2-ylmethyl)-4-(trifluoromethyl)pyrrolidin-1-yl]quinoxaline-5-carbonitrile] gave a pIC50 of 7.01.
